Experimental data as given in patent US11759462B2, “Spirocyclic compounds as tryptophan hydroxylase inhibitors” (priority 2013, dated 2023).
Where two headings read alike, the source gives them in different places.

Key:
[1] = system: jejunal mucosal 5-HT in mice (C57 BL6); assay: Reduction of mucosal 5-HT concentrations (Example C, repeated oral dosing); format: in vivo, mouse; details: P-value class
Method: The efficacy of the TPH1 inhibitors of the invention was assessed for the ability to decrease intestinal serotonin concentration in mice. Mice (C57 BL6) were administered an oral dose of 10 or 50 mg/kg of the test article in the evening. […] Following an overnight fast, each animal was euthanized by exsanguination under isoflurane anesthesia. Jejunal intestinal mucosa was isolated and homogenized in […] of a buffer containing 0.3M trichloroacetic acid, 0.1M sodium acetate, 10 mM EDTA, 20 mM sodium bisulfate and 50 mM ascorbic acid. Following centrifugation the 5-HT levels in the supernatants were measured by HPLC. The remaining mucosal pellet was solubilized overnight at 37° C. in a 0.1% sodium dodecyl sulfate buffer in 0.1N NaOH followed by determination of protein concentrations using a BCA protein assay (Pierce, Rockford, Ill.). 5-HT levels were normalized to protein and data were expressed as mean percent reduction of mucosal 5-HT levels relative to vehicle control±SEM (percent 5-HT reduction). All animal studies were carried out with protocols approved by the Institutional Animal Care and Use Committee. P-values, indicating statistical significance of the data (ANOVA) are provided in the table: * refers to P<0.05,** refers to P<0.01, *** refers to P<0.005, and **** refers to P<0.0005.

[2] = target: T1, Recombinant human TPH1 (MBP tagged) (Homo sapiens, UniProt P17752); assay: TPH1 in vitro inhibition assay (kinetic fluorescence); format: biochemical
T1 construct: cloning full length human TPH1 cDNA in to a bacterial pMAL-c5E expression vector; made in house; host or cells: E. coli BL21 (DE3)
T1 sequence (P17752 1-444): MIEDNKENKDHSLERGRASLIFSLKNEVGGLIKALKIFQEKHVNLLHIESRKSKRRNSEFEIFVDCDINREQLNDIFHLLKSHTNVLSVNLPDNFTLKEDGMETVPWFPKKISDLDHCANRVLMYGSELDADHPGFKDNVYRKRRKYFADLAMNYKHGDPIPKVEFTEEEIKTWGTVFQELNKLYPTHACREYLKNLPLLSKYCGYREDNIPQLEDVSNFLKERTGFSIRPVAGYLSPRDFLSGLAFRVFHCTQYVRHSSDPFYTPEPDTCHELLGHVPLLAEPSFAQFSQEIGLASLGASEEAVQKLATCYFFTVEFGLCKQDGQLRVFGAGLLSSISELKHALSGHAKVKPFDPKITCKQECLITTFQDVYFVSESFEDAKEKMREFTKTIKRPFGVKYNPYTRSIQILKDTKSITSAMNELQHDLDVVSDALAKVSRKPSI
Method in brief: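 Final mix: 15 nM MBP-TPH1, 30 μM Trp, 36 μM 6-methyltetrahydropterin, 25 μM ferrous ammonium sulfate, 50 mM MES pH 7.1, 1% DMSO, room temperature.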

[3] = system: jejunal mucosal 5-HT in mice (C57 BL6); assay: Intestinal 5-HT depletion assay (Example B, single 150 mg/kg oral dose); format: in vivo, mouse; details: one day after oral administration of a single 150 mg/kg dose, P-value class (ANOVA)
Method in brief: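 C57 BL6 mice received one 150 mg/kg oral gavage dose; jejunal mucosa was homogenized in acidic trichloroacetic acid buffer and 5-HT measured by HPLC. Levels normalized to BCA protein, expressed as mean percent reduction versus vehicle ± SEM; ANOVA significance.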

[4] = after three oral doses (first 10 or 50 mg/kg, then two doses of 50 mg/kg) (title)
[5] = read-out: TPH1 Range (TPH1 inhibition IC50)

IC50 [2, 5] | Compound | Efficacy (statistical significance of reduction of mucosal 5-HT concentrations relative to vehicle) [1, 4] | Efficacy (statistical significance of reduction of mucosal 5-HT concentrations relative to vehicle) [3] | other results
 | CCOC(=O)[C@@H]1CC2(CCN(c3cc(O[C@H](c4ccc(-c5ccc(OC)cc5)cc4-n4ccc(C)n4)C(F)(F)F)nc(N)n3)CC2)CN1 [Example 63ha, (S)-ethyl 8-(2-amino-6-((R)-2,2,2-trifluoro-1-(4′-methoxy-3-(3-methyl-1H-pyrazol-1-yl)-[1,1′-biphenyl]-4-yl)ethoxy)pyrimidin-4-yl)-2,8-diazaspiro[4.5]decane-3-carboxylate] | ** (** refers to P<0.01) |  | 
 | CCOC(=O)[C@@H]1CC2(CCN(c3cc(O[C@H](c4ccc(Cl)cc4-c4cccc(F)c4)C(F)(F)F)nc(N)n3)CC2)CN1 [Example 63ev, (S)-ethyl 8-(2-amino-6-((R)-1-(5-chloro-3′-fluoro-[1,1′-biphenyl]-2-yl)-2,2,2-trifluoroethoxy)pyrimidin-4-yl)-2,8-diazaspiro[4.5]decane-3-carboxylate] | *** (*** refers to P<0.005) |  | 
 | CCOC(=O)[C@@H]1CC2(CCN(c3cc(O[C@H](c4ccc(-c5ccc(Cl)c(Cl)c5)cc4-n4ccc(C)n4)C(F)(F)F)nc(N)n3)CC2)CN1 [Example 63aw, (S)-ethyl 8-(2-amino-6-((R)-1-(3′,4′-dichloro-3-(3-methyl-1H-pyrazol-1-yl)-[1,1′-biphenyl]-4-yl)-2,2,2-trifluoroethoxy)pyrimidin-4-yl)-2,8-diazaspiro[4.5]decane-3-carboxylate] | **** (**** refers to P<0.0005) |  | 
 | CC(C)OC(=O)[C@@H]1CC2(CCN(c3cc(O[C@H](c4ccc(Cl)cc4-c4ccccc4)C(F)(F)F)nc(N)n3)CC2)CN1 [Example 69a, (S)-isopropyl 8-(2-amino-6-((R)-1-(5-chloro-[1,1′-biphenyl]-2-yl)-2,2,2-trifluoroethoxy)pyrimidin-4-yl)-2,8-diazaspiro[4.5]decane-3-carboxylate] | *** (*** refers to P<0.005) |  | 
 | CCOC(=O)[C@@H]1CC2(CCN(c3cc(O[C@H](c4ccc(-c5ccc(OC(C)C)cc5)cc4-n4ccc(C)n4)C(F)(F)F)nc(N)n3)CC2)CN1 [Example 63cn, (S)-ethyl 8-(2-amino-6-((R)-2,2,2-trifluoro-1-(4′-isopropoxy-3-(3-methyl-1H-pyrazol-1-yl)-[1,1′-biphenyl]-4-yl)ethoxy)pyrimidin-4-yl)-2,8-diazaspiro[4.5]decane-3-carboxylate] | **** (**** refers to P<0.0005) |  | 
 | CCOC(=O)[C@@H]1CC2(CCN(c3cc(O[C@H](c4cc(Cl)ccc4-c4cccc(S(C)(=O)=O)c4)C(F)(F)F)nc(N)n3)CC2)CN1 [Example 63ae, (S)-ethyl 8-(2-amino-6-((R)-1-(4-chloro-3′-(methylsulfonyl)-[1,1′-biphenyl]-2-yl)-2,2,2-trifluoroethoxy)pyrimidin-4-yl)-2,8-diazaspiro[4.5]decane-3-carboxylate] | *** (*** refers to P<0.005) |  | 
 | CCOC(=O)[C@@H]1CC2(CCN(c3cc(O[C@H](c4ccccc4-c4cccc(Cl)c4)C(F)(F)F)nc(N)n3)CC2)CN1 [Example 63eo, (S)-ethyl 8-(2-amino-6-((R)-1-(3′-chloro-[1,1′-biphenyl]-2-yl)-2,2,2-trifluoroethoxy)pyrimidin-4-yl)-2,8-diazaspiro[4.5]decane-3-carboxylate] | *** (*** refers to P<0.005) |  | 
 | (S)-cyclopentyl 8-(2-amino-6-((R)-1-(4′-chloro-3-(3- methyl-1H-pyrazol-1-yl)-[1,1′-biphenyl]-4-yl)-2,2,2- trifluoroethoxy)pyrimidin-4-yl)-2,8- diazaspiro[4.5]decane-3-carboxylate [Example 69b] |  |  | Efficacy (statistical significance of reduction of mucosal 5-HT concentrations relative to vehicle) ([1]; (title)): *** (*** refers to P<0.005)
 | CCOC(=O)[C@@H]1CC2(CCN(c3cc(O[C@H](c4ccc(Cl)cc4-c4cccc(OC)c4)C(F)(F)F)nc(N)n3)CC2)CN1 [Example 63ep, (S)-ethyl 8-(2-amino-6-((R)-1-(5-chloro-3′-methoxy-[1,1′-biphenyl]-2-yl)-2,2,2-trifluoroethoxy)pyrimidin-4-yl)-2,8-diazaspiro[4.5]decane-3-carboxylate] | *** (*** refers to P<0.005) |  | 
 | CCOC(=O)[C@@H]1CC2(CCN(c3cc(O[C@H](c4ccc(Cl)cc4-c4cc(F)cc(F)c4)C(F)(F)F)nc(N)n3)CC2)CN1 [Example 63ey, (S)-ethyl 8-(2-amino-6-((R)-1-(5-chloro-3′,5′-difluoro-[1,1′-biphenyl]-2-yl)-2,2,2-trifluoroethoxy)pyrimidin-4-yl)-2,8-diazaspiro[4.5]decane-3-carboxylate] | ** (** refers to P<0.01) |  | 
< 0.05 µM | Nc1nc(O[C@H](c2ccc(-c3ccc4c(c3)CCNC4=O)cc2)C(F)(F)F)cc(N2CCC3(CC2)CN[C@H](C(=O)O)C3)n1 [Example 55bc, (S)-8-(2-amino-6-((R)-2,2,2-trifluoro-1-(4-(1-oxo-1,2,3,4-tetrahydroisoquinolin-6-yl)phenyl)ethoxy)pyrimidin-4-yl)-2,8-diazaspiro[4.5]decane-3-carboxylic acid] |  | ** (** refers to P<0.01) | 
< 0.05 µM | Cc1ccn(-c2cc(-c3ccc(C(C)(C)C)cc3)ccc2[C@@H](Oc2cc(N3CCC4(CC3)CN[C@H](C(=O)O)C4)nc(N)n2)C(F)(F)F)n1 [Example 1p, (S)-8-(2-amino-6-((R)-1-(4′-(tert-butyl)-3-(3-methyl-1H-pyrazol-1-yl)-[1,1′-biphenyl]-4-yl)-2,2,2-trifluoroethoxy)pyrimidin-4-yl)-2,8-diazaspiro[4.5]decane-3-carboxylic acid] |  | ** (** refers to P<0.01) | 
< 0.05 µM | Cc1n[nH]c2cc(-c3ccc([C@@H](Oc4cc(N5CCC6(CC5)CN[C@H](C(=O)O)C6)nc(N)n4)C(F)(F)F)cc3)ccc12 [Example 55az, (S)-8-(2-amino-6-((R)-2,2,2-trifluoro-1-(4-(3-methyl-1H-indazol-6-yl)phenyl)ethoxy)pyrimidin-4-yl)-2,8-diazaspiro[4.5]decane-3-carboxylic acid] |  | *** (*** refers to P<0.005) | 
< 0.05 µM | Cc1ccn(-c2cc(-c3ccc4c(C)n[nH]c4c3)ccc2[C@@H](Oc2cc(N3CCC4(CC3)CN[C@H](C(=O)O)C4)nc(N)n2)C(F)(F)F)n1 [Example 1o, (S)-8-(2-amino-6-((R)-2,2,2-trifluoro-1-(4-(3-methyl-1H-indazol-6-yl)-2-(3-methyl-1H-pyrazol-1-yl)phenyl)ethoxy)pyrimidin-4-yl)-2,8-diazaspiro[4.5]decane-3-carboxylic acid] |  | ** (** refers to P<0.01) | 
0.05 to 0.3 µM | Cc1ccc([C@@H](Oc2cc(N3CCC4(CC3)CN[C@H](C(=O)O)C4)nc(N)n2)C(F)(F)F)c(-n2ccc(C)n2)n1 [Example 11, (S)-8-(2-amino-6-((R)-2,2,2-trifluoro-1-(6-methyl-2-(3-methyl-1H-pyrazol-1-yl)pyridin-3-yl)ethoxy)pyrimidin-4-yl)-2,8-diazaspiro[4.5]decane-3-carboxylic acid] |  | **** (and refers to P<0.0005) | 
 | Nc1nc(O[C@H](c2ccc(-c3ccc4cnccc4c3)cc2)C(F)(F)F)cc(N2CCC3(CC2)CN[C@H](C(=O)O)C3)n1 [Example 55bd, (S)-8-(2-amino-6-((R)-2,2,2-trifluoro-1-(4-(isoquinolin-6-yl)phenyl)ethoxy)pyrimidin-4-yl)-2,8-diazaspiro[4.5]decane-3-carboxylic acid] |  | *** (*** refers to P<0.005) | IC50 ([2]; TPH1 Range (TPH1 inhibition IC50)): < 0.05 µM
